Assay results reported in patent US20240285808A1, “MOLECULAR PROBES FOR IN VIVO DETECTION OF ALDEHYDES” (The General Hospital Corporation, priority 2021, published 2024).

System: lungs of bleomycin-injured mice
Test: PET probe lung uptake in naïve and bleomycin-injured mice (gamma counter)
Assay type: in vivo, mouse
Settings: 90 min post injection; for Lung uptake, Bleo: 14 days post bleomycin injury; for Lung uptake, Naïve: naïve mice
Experimental: C57Bl/6 adult male mice at 8 weeks of age (Jackson Laboratories, Barr Harbor, ME) received a single intratracheal dose of bleomycin, 1 units/kg body weight (50 μL total volume) (Fresenius Kabi, Lake Zurich, Il) as previously described in Desogere, P., et al. Optimization of a Collagen-Targeted PET Probe for Molecular Imaging of Pulmonary Fibrosis. J Nuc Med 58, 1991-1996 (2017).
Imaging and Biodistribution Study for Selectivity of Allysine-Reactive Probes In Vivo:
Bleomycin-injured mice at 14 days after injury were sedated and then injected with Compound 19, Compound 20, Gd-CHyd (Akam, E. A., et al. Improving the reactivity of hydrazine-bearing MRI probes for in vivo imaging of lung fibrogenesis. Chemical Science 11, 224-231 (2020)) formulated to contain an equal concentration of Eu-DOTA as a non-binding control probe. Animals were then euthanized at 30 minutes after injection. The lungs were harvested separately, along with blood, tail and liver. Each sample was analyzed by ICP-MS for gadolinium and europium content, and the lungs were also assessed for hydroxyproline content. Selectivity is reported as the ratio of Gd to Eu. All animals were dosed via tail vein injection at 100 nmol/g body weight from 30 mM solutions of gadolinium probes with 30 mM Eu-DOTA as determined by ICP-MS. For PET probes, Compounds 1-8 were radiolabeled with either ^68Ga or ^64Cu and the dose was delivered as a bolus injection through tail vein. Animals were euthanized 90 min post injection and their organs and tissues were harvested and counted using a gamma counter. For an imaging study with a PET tracer, animals were injected inside PET/MRI scanner and scanned dynamically for 60 min under anesthesia. The animals were euthanized 90 min post injection and their organs and tissues were counted using a gamma counter. The biodistribution of Mn-15, Mn-16, Mn-17, and Mn-18 was determined by injecting a mixture of ^52/nat complex into naïve mice and activity in each tissue were measured 24 hours post injection.

Row | Compound | Lung uptake, Bleo [% ID/g] | Lung uptake, Naïve [% ID/g]
1 | NN1CCN(C(=O)CCOCCOCCOCCOCCNC(=O)CN2CCN(CC(=O)[O-])CCN(CC(=O)[O-])CC2)CC1.[68Ga+3] [^68Ga-1] | 0.99 | 0.27
2 | NNC(=O)C(N)CCC(=O)NCCOCCOCCOCCNC(=O)CN1CCN(CC(=O)[O-])CCN(CC(=O)[O-])CC1.[68Ga+3] (stereo not shown) [^68Ga-5] | 0.88 | 0.30
3 | O=C([O-])CN1CCN(CC(=O)[O-])CCN(CC(=O)NCCOCCOCCOCCNC(=O)CN2C(=O)CSC2=S)CC1.[68Ga+3] [^68Ga-4] | 0.61 | 0.24
4 | O=C([O-])CN1CCN(CC(=O)[O-])CCN(CC(=O)NCCOCCOCCOCCNC(=O)CN2C(=O)CSC2=S)CC1.[64Cu+2] [^64Cu-4] | 0.66 | 0.38
5 | NC(Cn1cccc1)C(=O)NCCOCCOCCOCCNC(=O)CN1CCN(CC(=O)[O-])CCN(CC(=O)[O-])CC1.[68Ga+3] (stereo not shown) [^68Ga-2] | 0.96 | 0.45
6 | NC(Cn1cccc1)C(=O)NCCOCCOCCOCCNC(=O)CN1CCN(CC(=O)[O-])CCN(CC(=O)[O-])CC1.[64Cu+2] (stereo not shown) [^64Cu-2] | 0.42 | 0.26
7 | Cc1cc(O)n(CC(=O)NCCOCCOCCOCCNC(=O)CN2CCN(CC(=O)[O-])CCN(CC(=O)[O-])CC2)n1.[68Ga+3] [^68Ga-3] | 2.13 | 0.82
8 | CNCCC1=NN(CC(=O)NCCOCCOCCOCCNC(=O)CN2CCN(CC(=O)[O-])CCN(CC(=O)[O-])CC2)C(=O)C1.[68Ga+3] [^68Ga-6] | 1.32 | 0.84
